Row | SMILES | melting point [°C]
1 | O=C(N[C@H](Cc1ccc(C(F)F)cc1)[C@@H](O)c1ccc(F)cc1)c1ccc(F)c2ccccc12 (racemic) [Example 165, N-[(1RS,2SR)-1-[4-(difluoromethyl)benzyl]-2-(4-fluorophenyl)-2-hydroxyethyl]-4-fluoronaphthalene-1-carboxamide] | 212 to 213
2 | CC(F)(F)c1ccc(C[C@@H](NC(=O)c2ccc(F)c3ccccc23)[C@@H](O)c2ccc(F)cc2)cc1 (racemic) [Example 166, N-[(1RS,2SR)-1-[4-(1,1-difluoroethyl)benzyl]-2-(4-fluorophenyl)-2-hydroxyethyl]-4-fluoronaphthalene-1-carboxamide] | 220 to 221
3 | O=C(N[C@H](Cc1ccc2c(c1)OC(F)(F)O2)[C@@H](O)c1ccc(F)cc1)c1ccc(F)c2ccccc12 (racemic) [Example 167, N-[(1RS,2SR)-1-[(2,2-difluoro-1,3-benzodioxol-5-yl)methyl]-2-(4-fluorophenyl)-2-hydroxyethyl]-4-fluoronaphthalene-1-carboxamide] | 219 to 220
4 | CC(C)(C)OC(=O)N[C@H](Cc1cnc(C(F)(F)F)s1)[C@@H](O)c1ccc(F)cc1 (racemic) [Example 168, tert-butyl N-[(1RS,2SR)-2-(4-fluorophenyl)-2-hydroxy-1-[[2-(trifluoromethyl)-1,3-thiazol-5-yl]methyl]ethyl]carbamate] | 137 to 138
5 | O=C(N[C@H](Cc1cnc(C(F)(F)F)s1)[C@@H](O)c1ccc(F)cc1)c1ccc(F)c2ccccc12 (racemic) [Example 169, 4-fluoro-N-[(1RS,2SR)-2-(4-fluorophenyl)-2-hydroxy-1-[[2-(trifluoromethyl)-1,3-thiazol-5-yl]methyl]ethyl]naphthalene-1-carboxamide] | 197 to 198
6 | O=C(N[C@H](Cc1cccc(OCC(F)(F)F)c1)[C@@H](O)c1ccc(F)cc1)c1ccc(F)c2ccccc12 (racemic) [Example 170, N-((1RS,2SR)-2-(4-fluorophenyl)-2-hydroxy-1-((3-(2,2,2-trifluoroethoxy)phenyl)methyl)ethyl)-4-fluoro-1-naphthalenecarboxamide] | 192 to 193
7 | O=C(N[C@H](Cc1cccc(OCC(F)(F)C(F)F)c1)[C@@H](O)c1ccc(F)cc1)c1ccc(F)c2ccccc12 (racemic) [Example 172, N-((1RS,2SR)-2-(4-fluorophenyl)-2-hydroxy-1-((3-(2,2,3,3-tetrafluoropropyloxy)phenyl)methyl)ethyl)-4-fluoro-1-naphthalenecarboxamide] | 160 to 161
8 | O=C(N[C@H](Cc1ccc(C(F)(F)F)cc1)[C@@H](O)c1ccccc1)c1ccc(F)c2ccccc12 (racemic) [Example 174, 4-fluoro-N-((1RS,2SR)-2-hydroxy-2-phenyl-1-((4-(trifluoromethyl)phenyl)methyl)ethyl)-1-naphthalenecarboxamide] | 217 to 218
9 | O=C(CCc1ccccc1)N[C@H](Cc1ccc(C(F)(F)F)cc1)[C@@H](O)c1ccccc1 (racemic) [Example 175, N-((1RS,2SR)-2-hydroxy-2-phenyl-1-((4-(trifluoromethyl)phenyl)methyl)ethyl)-3-phenylpropanamide] | 147 to 148
10 | O=C(N[C@H](Cc1ccc(C(F)(F)F)cc1)[C@@H](O)c1cccc(F)c1)c1ccc(F)c2ccccc12 (racemic) [Example 176, 4-fluoro-N-((1RS,2SR)-2-(3-fluorophenyl)-2-hydroxy-1-((4-(trifluoromethyl)phenyl)methyl)ethyl)-1-naphthalenecarboxamide] | 200 to 201
11 | O=C(CCc1ccccc1)N[C@H](Cc1ccc(C(F)(F)F)cc1)[C@@H](O)c1cccc(F)c1 (racemic) [Example 178, N-((1RS,2SR)-2-(3-fluorophenyl)-2-hydroxy-1-((4-(trifluoromethyl)phenyl)methyl)ethyl)-3-phenylpropanamide] | 151 to 152
12 | O=C(N[C@H](Cc1ccc(C(F)(F)F)cc1)[C@@H](O)c1ccccc1F)c1ccc(F)c2ccccc12 (racemic) [Example 179, 4-fluoro-N-((1RS,2SR)-2-(2-fluorophenyl)-2-hydroxy-1-((4-(trifluoromethyl)phenyl)methyl)ethyl)-1-naphthalenecarboxamide] | 190 to 191
13 | O=C(CCc1ccccc1)N[C@H](Cc1ccc(C(F)(F)F)cc1)[C@@H](O)c1ccccc1F (racemic) [Example 180, N-((1RS,2SR)-2-(2-fluorophenyl)-2-hydroxy-1-((4-(trifluoromethyl)phenyl)methyl)ethyl)-3-phenylpropanamide] | 124 to 125
14 | O=C(N[C@H](Cc1ccc(C(F)(F)F)cc1)[C@@H](O)c1ccc(F)cc1F)c1ccc(F)c2ccccc12 (racemic) [Example 181, N-((1RS,2SR)-2-(2,4-difluorophenyl)-2-hydroxy-1-((4-(trifluoromethyl)phenyl)methyl)ethyl)-4-fluoro-1-naphthalenecarboxamide] | 194 to 195

Further lines, results first:

Row | melting point [°C] | SMILES
15 | 126 to 127 | O=C(CCc1ccccc1)N[C@H](Cc1ccc(C(F)(F)F)cc1)[C@@H](O)c1ccc(F)cc1F (racemic) [Example 182, N-((1RS,2SR)-2-(2,4-difluorophenyl)-2-hydroxy-1-((4-(trifluoromethyl)phenyl)methyl)ethyl)-3-phenylpropanamide]
16 | 197 to 198 | O=C(N[C@H](Cc1ccc(C(F)(F)F)cc1)[C@@H](O)c1ccc(F)c(F)c1)c1ccc(F)c2ccccc12 (racemic) [Example 183, N-((1RS,2SR)-2-(3,4-difluorophenyl)-2-hydroxy-1-((4-(trifluoromethyl)phenyl)methyl)ethyl)-4-fluoro-1-naphthalenecarboxamide]
17 | 114 to 115 | O=C(CCc1ccccc1)N[C@H](Cc1ccc(C(F)(F)F)cc1)[C@@H](O)c1ccc(F)c(F)c1 (racemic) [Example 184, N-((1RS,2SR)-2-(3,4-difluorophenyl)-2-hydroxy-1-((4-(trifluoromethyl)phenyl)methyl)ethyl)-3-phenylpropanamide]
18 | 217 to 218 | O=C(N[C@H](Cc1ccc(C(F)(F)F)cc1)[C@@H](O)c1cccc2ccccc12)c1cccc2ccccc12 (racemic) [Example 185, N-((1RS,2SR)-2-hydroxy-2-(1-naphthalenyl)-1-((4-(trifluoromethyl)phenyl)methyl)ethyl)-1-naphthalenecarboxamide]
19 | 195 to 196 | O=C(N[C@H](Cc1ccc(C(F)(F)F)cc1)[C@@H](O)c1cccc2ccccc12)c1ccc(F)c2ccccc12 (racemic) [Example 186, 4-fluoro-N-((1RS,2SR)-2-hydroxy-2-(1-naphthalenyl)-1-((4-(trifluoromethyl)phenyl)methyl)ethyl)-1-naphthalenecarboxamide]
20 | 251 to 252 | O=C(N[C@H](Cc1ccc(C(F)(F)F)cc1)[C@@H](O)c1cccc2ccccc12)c1ccc2ccccc2c1 (racemic) [Example 187, N-((1RS,2SR)-2-hydroxy-2-(1-naphthalenyl)-1-((4-(trifluoromethyl)phenyl)methyl)ethyl)-2-naphthalenecarboxamide]
21 | 194 to 195 | O=C(N[C@H](Cc1ccc(C(F)(F)F)cc1)[C@@H](O)c1cccc2ccccc12)c1ccc(F)cc1 (racemic) [Example 188, 4-fluoro-N-((1RS,2SR)-2-hydroxy-2-(1-naphthalenyl)-1-((4-(trifluoromethyl)phenyl)methyl)ethyl)benzamide]
22 | 232 to 233 | O=C(N[C@H](Cc1ccc(C(F)(F)F)cc1)[C@@H](O)c1cccc2ccccc12)c1ccc(C(F)(F)F)cc1 (racemic) [Example 189, N-((1RS,2SR)-2-hydroxy-2-(1-naphthalenyl)-1-((4-(trifluoromethyl)phenyl)methyl)ethyl)-4-(trifluoromethyl)benzamide]
23 | 156 to 157 | O=C(N[C@H](Cc1ccc(C(F)(F)F)cc1)[C@@H](O)c1cccc2ccccc12)C1CCCCC1 (racemic) [Example 190, N-((1RS,2SR)-2-hydroxy-2-(1-naphthalenyl)-1-((4-(trifluoromethyl)phenyl)methyl)ethyl)cyclohexanecarboxamide]
24 | 139 to 140 | O=C(CCCc1cccs1)N[C@H](Cc1ccc(C(F)(F)F)cc1)[C@@H](O)c1cccc2ccccc12 (racemic) [Example 191, N-((1RS,2SR)-2-hydroxy-2-(1-naphthalenyl)-1-((4-(trifluoromethyl)phenyl)methyl)ethyl)-4-(2-thienyl)butyramide]
25 | 184 to 185 | COc1ccc([C@H](O)[C@@H](Cc2ccc(C(F)(F)F)cc2)NC(=O)c2ccc(F)c3ccccc23)cc1 (racemic) [Example 192, 4-fluoro-N-((1RS,2SR)-2-hydroxy-2-(4-methoxyphenyl)-1-((4-(trifluoromethyl)phenyl)methyl)ethyl)-1-naphthalenecarboxamide]
26 | 116 to 117 | COc1ccc([C@H](O)[C@@H](Cc2ccc(C(F)(F)F)cc2)NC(=O)CCc2ccccc2)cc1 (racemic) [Example 193, N-((1RS,2SR)-2-hydroxy-2-(4-methoxyphenyl)-1-((4-(trifluoromethyl)phenyl)methyl)ethyl)-3-phenylpropanamide]
27 | 203 to 204 | O=C(N[C@H](Cc1ccc(C(F)(F)F)cc1)[C@@H](O)c1ccc(Cl)cc1)c1ccc(F)c2ccccc12 (racemic) [Example 194, N-[(1RS,2SR)-2-(4-chlorophenyl)-2-hydroxy-1-[4-(trifluoromethyl)benzyl]ethyl]-4-fluoronaphthalene-1-carboxamide]
28 | 206 to 207 | O=C(N[C@H](Cc1ccc(C(F)(F)F)cc1)[C@@H](O)c1ccoc1)c1ccc(F)c2ccccc12 (racemic) [Example 195, 4-fluoro-N-((1RS,2SR)-2-(3-furanyl)-2-hydroxy-1-((4-(trifluoromethyl)phenyl)methyl)ethyl)-1-naphthalenecarboxamide]
29 | 134 to 135 | O=C(CCc1ccccc1)N[C@H](Cc1ccc(C(F)(F)F)cc1)[C@@H](O)c1ccoc1 (racemic) [Example 196, N-((1RS,2SR)-2-(3-furanyl)-2-hydroxy-1-((4-(trifluoromethyl)phenyl)methyl)ethyl)-3-phenylpropanamide]
